Test results as given in patent publication US8680150B2, “Small molecule hematopoietic growth factor mimetic compounds that activate hematopoietic growth factor receptors” (Ligand Pharmaceuticals, Inc., priority 2009, dated 2014).

system: UT7/EPO Cell line; experiment: Cell proliferation assay in UT7/EPO cell line (ViaLight Plus); assay type: cell-based, human; details: compound at 10 uM; efficacy relative to EPO (100%); UT7/EPO cells expressing endogenous EPO receptor, starved of EPO overnight; 72 hours at 37° C.
Description: The primary testing for the exemplified compounds was performed in UT7/EPO Cell line. UT7/EPO is human leukemia cell line, obtained from Dr. Norio Komatsu (Blood, Vol 82 (2), pp 456-464, 1993). These cells express endogenous EPO receptor and are dependant upon EPO for growth and proliferation. Briefly, the cells were starved of EPO overnight and plated in 96 or 384 well plates. The compounds were added to the cells at 10 uM concentration. The plates were then incubated at 37° C. for 72 hours. The proliferative effect of the compounds was measured by a commercially available kit from Lonza (ViaLight Plus).

Q: With `CN(C)c1ccc(C(=O)N/N=C/c2cccc(/C=N/OCc3ccccc3)c2)cc1` [Compound 190, 4-Dimethylaminobenz(3-benzyloxyiminomethylbenzylidene)hydrazide] as the compound, how does the “Activity (%)” value read?
A: Its value is 20%.

Q: `COc1cccc(/C=N/NC(=O)c2ccc(OCc3ccc(C)cc3)cc2)c1` [Compound 134, 4-(4-Methylbenzyloxy)benz(3-methoxybenzylidene)hydrazide] was tested. Which “Activity (%)” value did it give?
A: Its value is 14%.

Q: `COc1cccc(/C=N/NC(=O)c2ccc(OCc3ccc(C(F)(F)F)cc3)cc2)c1` [Compound 154, 4-(4-Trifluoromethylbenzyloxy)benz(3-methoxybenzylidene)hydrazide] was tested. Which “Activity (%)” value did it give?
A: The value was 6.7%.

Q: `CC1=NN(c2ccc3ccccc3n2)C(=O)/C1=N\Nc1ccc(O)cc1` [Compound 108, 4-(4-Hydroxyphenyl)hydrazono-1-(2-quinolino)-3-methyl-5-pyrazolone] was tested. Which “Activity (%)” value did it give?
A: Its value is 2.4%.

Q: How did the “Activity (%)” value turn out when `COc1cc(/C=N/NC(=O)c2ccc(-c3ccccc3)cc2)ccc1O` [Compound 144, 4-Phenylbenz(4-hydroxy-3-methoxybenzylidene)hydrazide] was run?
A: The value was 15%.

Q: How did the “Activity (%)” value turn out when `Cc1cccc(C(=O)N/N=C/c2ccccc2O)c1` [Compound 124, 3-Methylbenz(2-hydroxybenzylidene)hydrazide] was run?
A: Its value is 3.4%.

Q: For `CC(=O)c1cccc(/C=N/NC(=O)c2ccc(-c3ccccc3)cc2)c1` [Compound 165, 4-Phenylbenz(3-acetylbenzylidene)hydrazide], which “Activity (%)” value is on record?
A: The value was 14%.

Q: How did the “Activity (%)” value turn out when `O=C(N/N=C/c1ccccc1O)c1ccc(N2CCCC2=O)cc1` [Compound 123, 4-(2-Oxopyrrolidino-1-)benz(2-hydroxybenzylidene)hydrazide] was run?
A: The value was 5.1%.

Q: `CCCCCCCCCCCCCCCCCC(=O)N/N=C/c1cc(OC)ccc1O` [Compound 148, Octadecano(2-hydroxy-5-methoxybenzylidene)hydrazide] was tested. Which “Activity (%)” value did it give?
A: Its value is 7.1%.

Q: For `O=C(/C=C/c1ccc(-c2ccccc2)cc1)N/N=C/c1ccc(OCCO)cc1` [Compound 198, 2E-(4-Phenylphenyl)acryl(4-(2-hydroxyethoxy)benzylidene)hydrazide], which “Activity (%)” value is on record?
A: Its value is 4.6%.

Q: Which “Activity (%)” value does the source give for `O=C(N/N=C/c1ccc2[nH]ccc2c1)c1ccc(-c2ccccc2)cc1` [Compound 163, 4-Phenylbenz(5-indolidene)hydrazide] here?
A: Its value is 23%.

Q: `COc1cccc(/C=N/NC(=O)c2ccc(OCc3ccc4ccccc4c3)cc2)c1` [Compound 157, 4-(2-Naphthylmethoxy)benz(3-methoxybenzylidene)hydrazide] was tested. Which “Activity (%)” value did it give?
A: The value was 9.9%.

Q: `COc1cccc(/C=N/NC(=O)c2ccc(OCc3cccc(OC)c3)cc2)c1` [Compound 155, 4-(3-Methoxybenzyloxy)benz(3-methoxybenzylidene)hydrazide] was tested. Which “Activity (%)” value did it give?
A: Its value is 11%.

Q: How did the “Activity (%)” value turn out when `CN(C)c1ccc(C(=O)N/N=C/c2ccc3c(Cl)c[nH]c3c2)cc1` [Compound 180, 4-Dimethylaminobenz(3-chloro-6-indolidene)hydrazide] was run?
A: The value was 3.2%.

Q: How did the “Activity (%)” value turn out when `COc1cc(/C=N/NC(=O)c2ccc(-c3ccccc3)cc2)cc(OC)c1` [Compound 160, 4-Phenylbenz(3,5-dimethoxybenzylidene)hydrazide] was run?
A: The value was 6.1%.

Q: With `COc1ccc(O)c(/C=N/NC(=O)c2cc3cc(O)ccc3[nH]2)c1` [Compound 175, 5-Hydroxyindole-2-carboxyl(2-hydroxy-5-methoxybenzylidene)hydrazide] as the compound, how does the “Activity (%)” value read?
A: The value was 4.3%.

Q: For `COc1cc(/C=N/NC(=O)c2ccc(-c3ccccc3)cc2)ccc1F` [Compound 159, 4-Phenylbenz(4-fluoro-3-methoxybenzylidene)hydrazide], which “Activity (%)” value is on record?
A: The value was 8.9%.

Q: Which “Activity (%)” value does the source give for `COc1ccc(O)c(/C=N/NC(=O)c2cc3cc(O)ccc3o2)c1` [Compound 174, 5-Hydroxybenzofuran-2-carboxyl(2-hydroxy-5-methoxybenzylidene)hydrazide] here?
A: The value was 19%.

Q: How did the “Activity (%)” value turn out when `COc1ccc(O)c(/C=N/NC(=O)c2cc3cc(OC)ccc3[nH]2)c1` [Compound 172, 5-Methoxyindole-2-carboxyl(2-hydroxy-5-methoxybenzylidene)hydrazide] was run?
A: The value was 9.8%.

Q: For `O=C(N/N=C/c1ccc2ccccc2c1)c1ccc(-c2ccccc2)cc1` [Compound 125, 4-Phenylbenz(2-naphthylidene)hydrazide], which “Activity (%)” value is on record?
A: Its value is 15%.

Q: With `Cc1ccc(COCc2cccc(/C=N/NC(=O)c3ccc(N(C)C)cc3)c2)cc1` [Compound 189, 4-Dimethylaminobenz(3-(4-methylbenzyloxy)methylbenzylidene)hydrazide] as the compound, how does the “Activity (%)” value read?
A: The value was 9.1%.

Q: `CN(C)c1ccc(C(=O)N/N=C/c2cccc(/C=C/c3ccccc3Cl)c2)cc1` [Compound 185, 4-Dimethylaminobenz(2E-(2-chlorophenyl)ethenylbenzylidene)hydrazide] was tested. Which “Activity (%)” value did it give?
A: The value was 16%.

Q: Which “Activity (%)” value does the source give for `CN(C)c1ccc(C(=O)N/N=C/c2cccc(CO)c2)cc1` [Compound 171, 4-Dimethylaminobenz(3-hydroxymethylbenzylidene)hydrazide] here?
A: Its value is 16%.

Q: How did the “Activity (%)” value turn out when `C=CCO/N=C/c1cccc(/C=N/NC(=O)c2ccc(N(C)C)cc2)c1` [Compound 192, 4-Dimethylaminobenz(3-allyloxyiminomethylbenzylidene)hydrazide] was run?
A: Its value is 5.3%.

Q: Which “Activity (%)” value does the source give for `COc1ccc(/C=N/NC(=O)c2ccc(N3CCCC3=O)cc2)cc1` [Compound 131, 4-(2-Oxopyrrolidino-1-)benz(4-methoxybenzylidene)hydrazide] here?
A: Its value is 15%.

Q: Which “Activity (%)” value does the source give for `COc1cccc(/C=N/NC(=O)c2ccc(OCc3ccc(F)cc3)cc2)c1` [Compound 143, 4-(4-Fluorobenzyloxy)benz(3-methoxybenzylidene)hydrazide] here?
A: Its value is 14%.

Q: `COc1cccc(/C=N/NC(=O)c2ccc(NCCO)cc2)c1` [Compound 199, 4-(2-Hydroxyethylamino)benz(3-methoxybenzylidene)hydrazide] was tested. Which “Activity (%)” value did it give?
A: Its value is 3.0%.

Q: For `COc1ccc(COc2ccc(C(=O)N/N=C/c3cccc(OC)c3)cc2)cc1` [Compound 152, 4-(4-Methoxybenzyloxy)benz(3-methoxybenzylidene)hydrazide], which “Activity (%)” value is on record?
A: Its value is 6.9%.

Q: For `COc1cccc(/C=N/NC(=O)c2ccc(-c3ccccc3)cc2)c1` [Compound 140, 4-Phenylbenz(3-methoxybenzylidene)hydrazide], which “Activity (%)” value is on record?
A: The value was 14%.

Q: With `COc1cccc(/C=N/NC(=O)c2ccc(-c3ccccc3F)cc2)c1` [Compound 161, 4-(2-Fluorophenyl)phenylbenz(3-methoxybenzylidene)hydrazide] as the compound, how does the “Activity (%)” value read?
A: The value was 12%.

Q: How did the “Activity (%)” value turn out when `CCNC(=O)/C=C/c1cccc(/C=N/NC(=O)c2ccc(N(C)C)cc2)c1` [Compound 179, 4-Dimethylaminobenz(2E-ethylaminocarboxyethenylbenzylidene)hydrazide] was run?
A: The value was 4.3%.

Q: For `C=Cc1cccc(/C=N/NC(=O)c2ccc(-c3ccccc3)cc2)c1` [Compound 164, 4-Phenylbenz(3-vinylbenzylidene)hydrazide], which “Activity (%)” value is on record?
A: The value was 11%.

Q: Which “Activity (%)” value does the source give for `COc1cc(/C=N/NC(=O)c2ccc(OCc3ccc(C)cc3)cc2)cc(OC)c1OC` [Compound 136, 4-(4-Methylbenzyloxy)benz(3,4,5-trimethoxybenzylidene)hydrazide] here?
A: Its value is 4.8%.

Q: `COc1cc(/C=N/NC(=O)c2ccc(OCc3ccc(Cl)cc3)cc2)ccc1O` [Compound 141, 4-(4-Chlorobenzyloxy)benz(4-hydroxy-3-methoxybenzylidene)hydrazide] was tested. Which “Activity (%)” value did it give?
A: Its value is 17%.

Q: How did the “Activity (%)” value turn out when `COc1ccc(/C=N/NC(=O)c2ccc(N3CCCC3=O)cc2)cc1OC` [Compound 132, 4-(2-Oxopyrrolidino-1-)benz(3,4-dimethoxybenzylidene)hydrazide] was run?
A: The value was 8.7%.

Q: Which “Activity (%)” value does the source give for `COc1cccc(/C=N/NC(=O)c2ccc(OCc3ccccc3)cc2)c1` [Compound 149, 4-Benzyloxybenz(3-methoxybenzylidene)hydrazide] here?
A: The value was 9.7%.

Q: How did the “Activity (%)” value turn out when `COc1ccc(O)c(/C=N/NC(=O)c2ccc(N3CCCC3=O)cc2)c1` [Compound 129, 4-(2-Oxopyrrolidino-1-)benz(2-hydroxy-5-methoxybenzylidene)hydrazide] was run?
A: Its value is 23%.

Q: With `COc1ccc(/C=N/NC(=O)c2ccc(OCc3ccc(Cl)cc3)cc2)cc1OC` [Compound 137, 4-(4-Chlorobenzyloxy)benz(3,4-dimethoxybenzylidene)hydrazide] as the compound, how does the “Activity (%)” value read?
A: The value was 12%.

Q: Which “Activity (%)” value does the source give for `COc1cccc(/C=N/NC(=O)c2ccc(-n3cccc3)cc2)c1` [Compound 135, 4-(1-Pyrrolyl)benz(3-methoxybenzylidene)hydrazide] here?
A: The value was 12%.

Q: `O=C(N/N=C/c1ccc2ccccc2c1)c1ccc(O)cc1` [Compound 126, 4-Hydroxybenz(2-naphthylidene)hydrazide] was tested. Which “Activity (%)” value did it give?
A: The value was 3.4%.

Q: `O=C(N/N=C/c1cccc(/C=N/OCc2ccccc2)c1)c1ccc(-n2ccnc2)cc1` [Compound 194, 4-(1-Imidazolyl)benz(3-benzyloxyiminomethylbenzylidene)hydrazide] was tested. Which “Activity (%)” value did it give?
A: Its value is 5.2%.

Q: For `CN(C)c1ccc(C(=O)N/N=C/c2cccc(/C=C/c3cccc(Cl)c3)c2)cc1` [Compound 182, 4-Dimethylaminobenz(2E-(3-chlorophenyl)ethenylbenzylidene)hydrazide], which “Activity (%)” value is on record?
A: The value was 11%.

Q: How did the “Activity (%)” value turn out when `CN(C)c1ccc(C(=O)N/N=C/c2cccc(N(C)C)c2)cc1` [Compound 177, 4-Dimethylaminobenz(3-dimethylaminobenzylidene)hydrazide] was run?
A: Its value is 9.1%.

Q: For `COCc1cccc(/C=N/NC(=O)c2cc3cc(O)ccc3o2)c1` [Compound 176, 5-Hydroxybenzofuran-2-carboxyl(3-methoxymethylbenzylidene)hydrazide], which “Activity (%)” value is on record?
A: The value was 19%.

same assay, conditions: compound at 10 uM; efficacy relative to EPO (100%); UT7/EPO cells expressing endogenous EPO receptor, starved of EPO overnight; 72 hours at 37° C.; 10 µM

Q: With `COc1cccc(/C=N/NC(=O)c2ccc(N(C)C)cc2)c1` [Compound 168, 4-Dimethylaminobenz(3-methoxybenzylidene)hydrazide] as the compound, how does the “Activity (%)” value read?
A: The value was 11%.

Q: Which “Activity (%)” value does the source give for `COc1cccc(/C=N/NC(=O)c2ccc(N(C)C)cc2)c1` [Compound 139, 4-Dimethylaminobenz(3-methoxybenzylidene)hydrazide] here?
A: Its value is 7.8%.
